Experimental data: patent US4774232A, “Bile-substituting method of treatment for the promotion of fat digestion” (Chinoin Gyogyszer Es Vegyeszeti Termak Ek Gyara Rt, priority 1985, dated 1988)

What was measured:
bile-deficient rats [1] = test: Substitution of the bile in rats: 5-day fat treatment, faecal, plasma and liver lipids; type: in vivo, rats (Etymis rattus var. albino)
Method: In an other series of experiments, the total lipid content of the faeces discharged by bile-deficient rats was studied.
The oral treatment was started with the daily administration of 1 ml of swine fat or 1 ml of swine fat together with 150 mg of DIMEB, respectively, in the 72nd hour following the ligature. The treatment was continued for 5 days. The faeces was collected in the first 4 days of the treatment. In the 4th hour following the treatment on the 5th day, the experimental animals were decapitated and their samples were worked up. […] An extraordinarily high amount of lipids were eliminated with the faeces of the animals fed with fat. […] Nearly 100 percent of the introduced fat was absorbed under the effect of DIMEB.
A significant deviation was observed between the groups treated with fat or with fat together with DIMEB, respectively. […] The triglyceride concentration was restored in this group to the control value by the treatment with fat. A significant increase in the triglyceride concentration was induced by the treatment with fat together with DIMEB in comparison to the former group.

bile-deficient rats [2] = test: Absorption of 3H-stearic acid with oral DIMEB in bile-deficient rats (Example 10); type: in vivo; details: for Radioactivity in 10 ml of blood: 14.7 mg 3H-stearic acid + 50 mg DIMEB oral
Method: The substitution of the bile by DIMEB in bile-deficiency was studied in rats after ligating the bile duct.
After being starved for 24 hours, the animals were subjected to the bile duct-ligation under nembutal anaesthesia. The absorption was investigated in the 48th hour after starving the animals overnight. The animals were also starved in the course of the examination; but received water ad libitum. One group (3 animals) received 12.8 mg of ^3 H-stearic acid (specific radioactivity: 171.12 kBq/mg), whereas the other group (3 animals) was administered 14.7 mg of ^3 H-stearic acid and 50 mg of DIMEB in 2 ml of distilled water. The substances were suspended in the distilled water ultrasonically. Thereafter, the radioactivity level of the blood was measured at various intervals, by using the liquid scintillation method (Table XI).

[3] = Absorption and elimination of DIMEB in animal experiments; type: in vivo
[4] = bile acid-deficient rats, daily 1 ml fat + 150 mg DIMEB, treatment lasting 5 days

## COC[C@H]1O[C@@H]2O[C@H]3[C@H](O)[C@@H](OC)[C@@H](O[C@H]4[C@H](O)[C@@H](OC)[C@@H](O[C@H]5[C@H](O)[C@@H](OC)[C@@H](O[C@H]6[C@H](O)[C@@H](OC)[C@@H](O[C@H]7[C@H](O)[C@@H](OC)[C@@H](O[C@H]8[C@H](O)[C@@H](OC)[C@@H](O[C@H]1[C@H](O)[C@H]2OC)O[C@@H]8COC)O[C@@H]7COC)O[C@@H]6COC)O[C@@H]5COC)O[C@@H]4COC)O[C@@H]3COC [DIMEB, heptakis(2,6-di-O-methyl)-β-cyclodextrin]
bile-deficient rats [1]; bile acid-deficient rats, daily 1 ml fat + 150 mg DIMEB for 5 days, faeces of first 4 days
  Fat discharge (total lipid content of the faeces): 6.16 ± 2.37 g/100 g
bile-deficient rats [1]; [4]
  Liver triglycerides: 9.1 ± 2.2 mg/100 ml
  Plasma total lipids: 688.7 ± 95.8 mg/100 ml
  Plasma triglycerides: 71.9 ± 19.1 mg/100 ml
bile-deficient rats [1]; bile-deficient rats, daily 1 ml swine fat + 150 mg DIMEB
  Introduced fat absorbed: ~100%
bile-deficient rats [2]; 1 h, animal 4
  Radioactivity in 10 ml of blood: 0.86 percentage
bile-deficient rats [2]; 1 h, animal 5
  Radioactivity in 10 ml of blood: 3.45 percentage
bile-deficient rats [2]; 1 h, animal 6
  Radioactivity in 10 ml of blood: 1.61 percentage
bile-deficient rats [2]; 1 h, mean
  Radioactivity in 10 ml of blood: 1.97 percentage
bile-deficient rats [2]; 2 h, animal 4
  Radioactivity in 10 ml of blood: 1.05 percentage
bile-deficient rats [2]; 2 h, animal 5
  Radioactivity in 10 ml of blood: 3.25 percentage
bile-deficient rats [2]; 2 h, animal 6
  Radioactivity in 10 ml of blood: 2.56 percentage
bile-deficient rats [2]; 2 h, mean
  Radioactivity in 10 ml of blood: 2.29 percentage
bile-deficient rats [2]; 3 h, animal 4
  Radioactivity in 10 ml of blood: 1.14 percentage
bile-deficient rats [2]; 3 h, animal 5
  Radioactivity in 10 ml of blood: 3.22 percentage
bile-deficient rats [2]; 3 h, animal 6
  Radioactivity in 10 ml of blood: 2.39 percentage
bile-deficient rats [2]; 3 h, mean
  Radioactivity in 10 ml of blood: 2.25 percentage
bile-deficient rats [2]; 4 h, animal 4
  Radioactivity in 10 ml of blood: 1.19 percentage
bile-deficient rats [2]; 4 h, animal 5
  Radioactivity in 10 ml of blood: 3.06 percentage
bile-deficient rats [2]; 4 h, animal 6
  Radioactivity in 10 ml of blood: 2.28 percentage
bile-deficient rats [2]; 4 h, mean
  Radioactivity in 10 ml of blood: 2.18 percentage
bile-deficient rats [2]; 5 h, animal 4
  Radioactivity in 10 ml of blood: 1.24 percentage
bile-deficient rats [2]; 5 h, animal 5
  Radioactivity in 10 ml of blood: 3.08 percentage
bile-deficient rats [2]; 5 h, animal 6
  Radioactivity in 10 ml of blood: 2.27 percentage
bile-deficient rats [2]; 5 h, mean
  Radioactivity in 10 ml of blood: 2.20 percentage
bile-deficient rats [2]; 6 h, animal 4
  Radioactivity in 10 ml of blood: 1.25 percentage
bile-deficient rats [2]; 6 h, animal 5
  Radioactivity in 10 ml of blood: 2.91 percentage
bile-deficient rats [2]; 6 h, animal 6
  Radioactivity in 10 ml of blood: 2.56 percentage
bile-deficient rats [2]; 6 h, mean
  Radioactivity in 10 ml of blood: 2.24 percentage
bile-deficient rats [2]; 7 h, animal 4
  Radioactivity in 10 ml of blood: 1.33 percentage
bile-deficient rats [2]; 7 h, animal 5
  Radioactivity in 10 ml of blood: 3.03 percentage
bile-deficient rats [2]; 7 h, animal 6
  Radioactivity in 10 ml of blood: 2.67 percentage
bile-deficient rats [2]; 7 h, mean
  Radioactivity in 10 ml of blood: 2.34 percentage
bile-deficient rats [2]; 8 h, animal 4
  Radioactivity in 10 ml of blood: 1.37 percentage
bile-deficient rats [2]; 8 h, animal 5
  Radioactivity in 10 ml of blood: 3.13 percentage
bile-deficient rats [2]; 8 h, animal 6
  Radioactivity in 10 ml of blood: 2.58 percentage
bile-deficient rats [2]; 8 h, mean
  Radioactivity in 10 ml of blood: 2.36 percentage
bile-deficient rats [2]; 10 h, animal 4
  Radioactivity in 10 ml of blood: 1.29 percentage
bile-deficient rats [2]; 10 h, animal 5
  Radioactivity in 10 ml of blood: 3.26 percentage
bile-deficient rats [2]; 10 h, animal 6
  Radioactivity in 10 ml of blood: 2.67 percentage
bile-deficient rats [2]; 10 h, mean
  Radioactivity in 10 ml of blood: 2.41 percentage
bile-deficient rats [2]; 24 h, animal 4
  Radioactivity in 10 ml of blood: 1.60 percentage
bile-deficient rats [2]; 24 h, animal 5
  Radioactivity in 10 ml of blood: 4.56 percentage
bile-deficient rats [2]; 24 h, animal 6
  Radioactivity in 10 ml of blood: 4.00 percentage
bile-deficient rats [2]; 24 h, mean
  Radioactivity in 10 ml of blood: 3.39 percentage
bile-deficient rats [2]; 24th hour
  Blood level relative to animals treated with stearic acid only: 1.4 times
[3]; after intravenous administration
  Time to complete elimination through the kidneys: ≤ 6 h
[3]; animal experiments, oral
  Absorption after oral administration: not absorbed
